Laboratory results: article PMC4763988, “Activating peptides for cellular uptake via polymerization into high density brushes” (Chemical Science, 2015)
NorAha = not defined here

Experiments:
HeLa cells [1] = test system: HeLa cells
HeLa cells [2] = type: cell-based
Protocol: Figures S10. Influence of the degree of polymerization or “m” on cellular uptake as quantified by flow cytometry. All data are […] with respect to the fluorophore. 20 15 10 Conc.&(μM)& […] 5 […] 0 […] Figures S11. Concentration dependence of cellular uptake as quantified by flow cytometry. All data are referenced to vehicle […] Concentration of all materials is with respect to the fluorophore. SVI. Live-cell confocal microscopy. HeLa cells were plated on glass-bottom 24-well plates at a cell density of 90,000 cells per well 18 hrs prior to treatment with the compound of interest. The medium was removed and then replaced with medium lacking phenol red (Gibco Life Tech., cat# 31053-028) to minimize background fluorescence. […] respect to fluorophore) were added to the wells and the plates were incubated for 30 min at 37 °C. The medium was then removed and the cells were rinsed 2× with DPBS, and then fresh medium (phenol red- free) was added to each well. Live cells were imaged on an Olympus FV1000 confocal microscope with a chamber at 37 ° C under 5% CO2 via a Z-stack analysis (set to 1 μm slices) using identical instrument settings for each image and a 40× or 100x objective. S14 (also on this page, place not known: 31053 -028) […] Normalized Mean Fluorescence […]

HeLa cells [3] = assay: Propidium iodide cell staining assay for necrotic cells; type: cell-based; conditions: flow cytometry PI channel; for Propidium iodide staining, shift of cell population (in words): KLA m ~ 10 5 hr, staurosporine 1 µM 24 hrs
Protocol: Apoptosis and necrosis assays. Apoptotic and necrotic cells were identified using the CFTM488A Annexin V
stains necrotic cells. For these studies, HeLa cells were plated at a density of 420,000 cells per well of a 6-well
plate 18 hrs prior to treatment. KLA, m ~ 10, was dissolved in DPBS to a concentration of 2000 µM, where
concentration is with respect to peptide and no fluorophore is present. Staurosporin, a small molecule that is
known to cause apoptosis, was dissolved at 1000× (desired concentration on cells is 1 µM) in DMSO.
Staurosporin and the vehicle control were added to the wells 24 hrs prior to analysis, and KLA (m ~ 10) and 10%
DMSO control were added 5 hr prior to analysis. After incubation, materials were removed and the cells were
washed 2× with DPBS followed by 3 × 5 minute incubations with heparin (0.5 mg/mL in DPBS), and finally rinsed
and the cells were transferred to Eppendorf tubes. The suspended cells were centrifuged to pellets and then
resuspended in 100 µL Annexin V binding buffer. Then 5 µL of Annexin V was added to each Eppendorf, followed
by 1 µL of PI. The cells were then incubated in a 37 ° C water bath for 15 minutes in the dark. After incubation,
flow cytometry data was acquired monitoring the FITC channel (for Annexin V staining) and the PI channel.

[4] = Aggregation in DPBS by dynamic light scattering; type: physicochemical; conditions: for diameter by DLS: dissolved in DPBS, 10 x the concentration used in uptake studies, correlates to unimers
From the text: (§1) and dried. In preparation for in vitro cell studies, all polymers were washed (3×) with cold ether (to remove the Ru catalyst) and then dissolved in DPBS and dialyzed in dialysis cups with a molecular weight cut-off value of 3500 (Thermo Scientific, cat. # 69552) in an effort to remove any residual monomer or catalyst.
(§2) We also sought to determine whether our block copolymers (i.e., GSGSGRR60-b-OEG20 and derivatives) formed larger aggregate structures in aqueous solution. To this end, we characterized three polymers GSGSGRR m ~ 60, GSGSGKK m ~ 60 and GSGSG m ~ 60 dissolved in DPBS by standard dynamic light scattering (DLS) and […] electron microscopy (TEM) analyses, which we perform routinely in other work to characterize nano-and micron-scale polymer assemblies. […]
quench here with IV. deprotection
(§3) Figure S5. Polymerization scheme for the preparation of GSGSG peptide polymers and analogues. Peptide polymers for this series are prepared via ROMP as block copolymers with an accessory OEG block to ensure aqueous solubility of all GSGSG analogues. Each peptide block is polymerized to m ~ 8, 15, 30, and 60. The OEG block is kept constant at a DP of ~ 20. The living polymer can be terminated with ethyl vinyl ether after completion of the peptide block to gain accurate molecular weights (Mn), dispersity (Mw/Mn) and degree of polymerization (DP). […]

cells = conditions: cited from earlier work
HeLa cells [5] = test system: HeLa cells; remark: listed apart in the source
trypsin = trypsin (Sus scrofa, UniProt P00761); conditions: 50 µM with respect to peptide, protease 1 µM (Fig. S25 for KLA: 10 µM), 3 hrs in DPBS, heat denatured 65 °C 15 m, RP-HPLC with standard curve
Sequence of trypsin (P00761 9-231): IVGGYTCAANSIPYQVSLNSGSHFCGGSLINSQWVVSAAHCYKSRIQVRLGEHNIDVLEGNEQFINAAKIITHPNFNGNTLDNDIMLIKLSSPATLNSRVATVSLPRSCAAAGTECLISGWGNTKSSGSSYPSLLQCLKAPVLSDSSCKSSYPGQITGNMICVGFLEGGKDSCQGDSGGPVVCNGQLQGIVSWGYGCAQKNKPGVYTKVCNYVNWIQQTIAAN

[6] = test system: pronase (protease cocktail); conditions: 50 µM with respect to peptide, protease 1 µM (Fig. S25 for KLA: 10 µM), 3 hrs in DPBS, heat denatured 65 °C 15 m, RP-HPLC with standard curve
[7] = test system: mitochondrial membrane potential in HeLa cells; assay: JC-1 mitochondrial integrity (membrane potential) assay; type: cell-based; conditions: JC-1 assay, relative to vehicle (DPBS)-treated cells
[8] = Aggregation in DPBS by TEM; type: physicochemical; conditions: dissolved in DPBS, 10 x the concentration used in uptake studies
From the text: as §1, §2, §3

Compound: NorAhaKLAKLAKKLAKLAK-NH2 [KLA polymer (m ∼ 5)]
- LD50 (HeLa cells [1]): 12.5 µM

Compound: NorAhaKLAKLAKKLAKLAK-NH2 [KLA polymer (m ∼ 10)]
- Internalization and localization by live-cell confocal microscopy (in words) (HeLa cells [2]): diffuse and punctate fluorescence
- Propidium iodide staining, shift of cell population (in words) (HeLa cells [3]): no shift
- LD50 (HeLa cells [1]): 25 µM

Compound: GSGSGK53-b-OEG20 [GSGSGK Polymer (m ~ 60)]
- Aggregation of deprotected polymer in DPBS by dynamic light scattering (in words) ([4]; DPBS, deprotected polymer): did not aggregate in DPBS

Compound: NorAhaKLAKLAKKLAKLAK-NH2 [KLA polymer (m ∼ 15)]
- LD50 (HeLa cells [1]): 30 µM

Compound: C[S+](C)[O-] [DMSO]
- Propidium iodide staining, increase in necrotic cells (HeLa cells [3]; 10% DMSO added 5 hr prior to analysis): ~40 fold increase

Compound: K(Flu)KLAKLAKKLAKLAK-NH2 [KLA peptide]
- Cell penetration of KLA (in words) (cells; sub-millimolar concentrations): does not penetrate cells at sub-millimolar concentrations
- Cellular uptake: fluorescence signal of treated HeLa cells by flow cytometry (in words) (HeLa cells [5]): indistinguishable from that of the vehicle control
- Proteolytic degradation by trypsin (RP-HPLC before and after, in words) (trypsin): completely degraded into fragments
- Proteolytic degradation by pronase (RP-HPLC before and after, in words) [6]: completely degraded into fragments
- Cytotoxicity (in words) (HeLa cells [1]): no cytotoxicity was detected

Compound: NorAhaKLAKLAK-NH2 (NorAha-KLAKLAK-NH2; reading uncertain; also: polymerized by ROMP, about 10 repeats on polymer backbone) [KLAfragment]
- Internalization and localization by live-cell confocal microscopy (in words) (HeLa cells [2]): mixture of diffuse and punctate fluorescence
- Mitochondrial integrity of treated cells (in words) [7]: unaffected
- Cytotoxicity (in words) (HeLa cells [1]): negligible toxicity

Compound: GSGSG56-b-OEG28 [GSGSG polymer]
- diameter by DLS [4]: < 6 nm
- TEM images compared with buffer (DPBS) alone [8]: indistinguishable

Compound: NorAhaGSGSGKK-NH2 [GSGSGKK polymer]
- Internalization and localization by live-cell confocal microscopy (in words) (HeLa cells [2]): diffuse and punctate fluorescence
- diameter by DLS [4]: < 6 nm
- TEM images compared with buffer (DPBS) alone [8]: indistinguishable

Compound: CN[C@@H]1C[C@H]2O[C@@](C)([C@@H]1OC)n1c3ccccc3c3c4c(c5c6ccccc6n2c5c31)C(=O)NC4 [Staurosporine]
- Propidium iodide staining, shift of cell population (in words) (HeLa cells [3]): no shift

Compound: GSGSG
- Cell penetration of GSGSG (in words) (cells): does not penetrate cells
